Results from patent publication US9492471B2, “Methods of treating a disease or disorder associated with Bruton'S Tyrosine Kinase” (Celgene Avilomics Research, Inc., priority 2013, dated 2016).
Where two headings read alike, the source gives them in different places.

Tests used:
Experiment in all cases: HotSpot kinase profiling
Format in all cases: biochemical
HIPK1 = biological target: T1, HIPK1 (Homo sapiens, UniProt Q86Z02)
T1 construct: purchased Reaction Biology Corp
Procedure, shortened: (§1)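 P81 filtration radiometric readout; 2 h incubation at room temperature; 0.1% phosphoric acid wash; DMSO negative control; % inhibition, mean of replicate runs.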

PIM3 = biological target: T2, PIM3 (Homo sapiens, UniProt Q86V86)
T2 construct: purchased Reaction Biology Corp
Procedure, shortened: as §1

PKCg = biological target: T3, PKCg (Homo sapiens, UniProt P05129)
T3 construct: purchased Reaction Biology Corp
Procedure, shortened: as §1

FRK/PTK5 = biological target: T4, FRK/PTK5 (Homo sapiens, UniProt P42685)
T4 construct: purchased Reaction Biology Corp
T4 sequence (P42685 whole entry): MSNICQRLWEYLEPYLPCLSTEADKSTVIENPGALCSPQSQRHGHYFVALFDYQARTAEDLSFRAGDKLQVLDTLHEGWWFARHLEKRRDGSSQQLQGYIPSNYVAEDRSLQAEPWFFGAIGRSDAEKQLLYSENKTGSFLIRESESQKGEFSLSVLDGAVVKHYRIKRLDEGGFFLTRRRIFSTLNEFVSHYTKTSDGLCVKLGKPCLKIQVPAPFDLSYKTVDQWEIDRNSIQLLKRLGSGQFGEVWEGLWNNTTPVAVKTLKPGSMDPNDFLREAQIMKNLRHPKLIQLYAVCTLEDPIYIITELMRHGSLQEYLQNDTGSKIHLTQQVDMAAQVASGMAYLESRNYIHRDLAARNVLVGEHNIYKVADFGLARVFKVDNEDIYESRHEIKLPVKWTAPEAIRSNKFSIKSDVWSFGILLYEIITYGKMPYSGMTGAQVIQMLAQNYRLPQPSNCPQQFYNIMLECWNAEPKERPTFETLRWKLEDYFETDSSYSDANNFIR
Procedure, shortened: as §1

ULK1 = biological target: T5, ULK1 (Homo sapiens, UniProt O75385)
T5 construct: purchased Reaction Biology Corp
T5 sequence (O75385 1-1050): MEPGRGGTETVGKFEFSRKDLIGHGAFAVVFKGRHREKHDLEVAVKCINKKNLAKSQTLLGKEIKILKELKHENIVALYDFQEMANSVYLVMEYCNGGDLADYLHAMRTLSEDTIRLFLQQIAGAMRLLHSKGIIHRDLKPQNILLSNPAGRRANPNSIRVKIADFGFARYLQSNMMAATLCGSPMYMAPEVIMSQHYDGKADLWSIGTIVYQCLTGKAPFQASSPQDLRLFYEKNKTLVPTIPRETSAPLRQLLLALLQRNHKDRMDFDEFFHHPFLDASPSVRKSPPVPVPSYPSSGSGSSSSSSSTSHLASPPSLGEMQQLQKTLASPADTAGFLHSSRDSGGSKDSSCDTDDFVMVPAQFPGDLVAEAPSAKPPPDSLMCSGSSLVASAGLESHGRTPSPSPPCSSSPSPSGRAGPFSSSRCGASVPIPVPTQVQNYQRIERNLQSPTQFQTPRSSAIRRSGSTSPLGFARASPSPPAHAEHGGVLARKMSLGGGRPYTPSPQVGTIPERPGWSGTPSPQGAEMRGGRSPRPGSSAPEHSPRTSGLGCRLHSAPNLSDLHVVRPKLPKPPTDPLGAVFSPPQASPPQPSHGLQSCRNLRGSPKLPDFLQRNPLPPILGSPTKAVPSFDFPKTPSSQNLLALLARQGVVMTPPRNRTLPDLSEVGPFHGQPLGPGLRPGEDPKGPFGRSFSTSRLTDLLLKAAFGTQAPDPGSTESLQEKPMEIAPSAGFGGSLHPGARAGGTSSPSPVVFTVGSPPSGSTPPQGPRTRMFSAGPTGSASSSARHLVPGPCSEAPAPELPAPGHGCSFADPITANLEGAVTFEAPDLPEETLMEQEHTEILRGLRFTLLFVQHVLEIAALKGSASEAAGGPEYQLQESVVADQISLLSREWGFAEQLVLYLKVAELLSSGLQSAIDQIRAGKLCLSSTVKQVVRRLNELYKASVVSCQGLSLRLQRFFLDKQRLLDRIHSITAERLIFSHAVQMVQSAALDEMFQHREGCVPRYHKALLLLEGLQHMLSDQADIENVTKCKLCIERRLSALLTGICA
Procedure, shortened: as §1

STK32C/YANK3 = biological target: T6, STK32C/YANK3 (Homo sapiens, UniProt Q86UX6)
T6 construct: purchased Reaction Biology Corp
T6 sequence (Q86UX6 whole entry): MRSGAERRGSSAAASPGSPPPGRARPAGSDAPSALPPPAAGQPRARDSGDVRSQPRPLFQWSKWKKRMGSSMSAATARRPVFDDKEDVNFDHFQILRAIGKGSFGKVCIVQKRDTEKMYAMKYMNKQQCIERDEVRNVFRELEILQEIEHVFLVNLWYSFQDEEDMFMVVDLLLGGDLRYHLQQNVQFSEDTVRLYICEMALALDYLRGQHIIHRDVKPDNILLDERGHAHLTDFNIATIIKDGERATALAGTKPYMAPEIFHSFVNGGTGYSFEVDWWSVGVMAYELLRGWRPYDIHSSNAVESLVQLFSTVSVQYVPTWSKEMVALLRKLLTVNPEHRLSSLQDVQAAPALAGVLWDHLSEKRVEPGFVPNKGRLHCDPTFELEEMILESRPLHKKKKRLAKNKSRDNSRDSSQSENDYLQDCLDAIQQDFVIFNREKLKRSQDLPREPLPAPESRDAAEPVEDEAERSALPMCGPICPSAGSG
Procedure, shortened: as §1

MKK6 = biological target: T7, MKK6 (Homo sapiens, UniProt P52564)
T7 construct: purchased Reaction Biology Corp
T7 sequence (P52564 1-334): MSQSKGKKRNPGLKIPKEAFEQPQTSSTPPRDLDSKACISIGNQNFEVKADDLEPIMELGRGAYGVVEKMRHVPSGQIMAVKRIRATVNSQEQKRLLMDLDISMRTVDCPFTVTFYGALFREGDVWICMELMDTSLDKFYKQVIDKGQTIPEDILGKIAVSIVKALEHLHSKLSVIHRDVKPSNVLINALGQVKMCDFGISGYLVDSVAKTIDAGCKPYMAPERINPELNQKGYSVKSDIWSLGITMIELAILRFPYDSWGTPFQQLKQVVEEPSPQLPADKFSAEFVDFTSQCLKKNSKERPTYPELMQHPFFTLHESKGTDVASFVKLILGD
Procedure, shortened: as §1

[1] = read-out: % Enzyme Activity (relative to DMSO controls) Run 1
[2] = read-out: % Enzyme Activity (relative to DMSO controls) Run 2

T1 sequence (Q86Z02 whole entry): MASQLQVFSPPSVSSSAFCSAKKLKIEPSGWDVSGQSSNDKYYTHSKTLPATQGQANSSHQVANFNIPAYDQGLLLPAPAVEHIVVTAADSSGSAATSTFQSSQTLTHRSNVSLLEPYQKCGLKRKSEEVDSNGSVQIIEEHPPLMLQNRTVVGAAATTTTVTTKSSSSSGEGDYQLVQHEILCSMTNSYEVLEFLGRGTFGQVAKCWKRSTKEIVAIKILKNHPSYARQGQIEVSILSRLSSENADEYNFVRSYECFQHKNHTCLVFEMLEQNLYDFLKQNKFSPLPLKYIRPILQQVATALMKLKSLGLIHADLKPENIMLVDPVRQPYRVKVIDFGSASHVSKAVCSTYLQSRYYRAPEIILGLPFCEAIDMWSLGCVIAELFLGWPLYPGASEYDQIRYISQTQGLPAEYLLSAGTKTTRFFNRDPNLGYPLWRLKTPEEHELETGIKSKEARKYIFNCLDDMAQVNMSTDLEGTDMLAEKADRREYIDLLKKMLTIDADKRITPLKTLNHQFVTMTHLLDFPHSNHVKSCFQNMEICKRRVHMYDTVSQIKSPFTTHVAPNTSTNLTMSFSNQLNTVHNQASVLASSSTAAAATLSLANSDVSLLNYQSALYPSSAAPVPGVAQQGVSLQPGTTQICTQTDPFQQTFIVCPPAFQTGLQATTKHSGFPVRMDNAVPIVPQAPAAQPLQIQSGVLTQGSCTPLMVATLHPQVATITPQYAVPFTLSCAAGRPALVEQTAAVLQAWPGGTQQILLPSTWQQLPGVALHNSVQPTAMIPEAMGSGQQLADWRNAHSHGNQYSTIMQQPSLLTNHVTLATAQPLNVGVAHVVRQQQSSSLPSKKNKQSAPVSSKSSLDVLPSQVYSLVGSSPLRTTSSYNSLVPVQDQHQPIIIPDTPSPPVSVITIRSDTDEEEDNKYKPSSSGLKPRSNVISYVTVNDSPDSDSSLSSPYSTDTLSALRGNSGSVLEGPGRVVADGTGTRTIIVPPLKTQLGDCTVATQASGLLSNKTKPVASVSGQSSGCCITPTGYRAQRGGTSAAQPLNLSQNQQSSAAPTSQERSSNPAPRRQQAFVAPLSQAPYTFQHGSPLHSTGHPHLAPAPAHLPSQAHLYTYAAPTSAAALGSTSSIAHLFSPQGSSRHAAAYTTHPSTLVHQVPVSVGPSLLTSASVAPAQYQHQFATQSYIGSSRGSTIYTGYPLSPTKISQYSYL

SMILES: C=CC(=O)Nc1cccc(Nc2nc(Nc3ccc(OCCOC)c(F)c3)ncc2F)c1 [Compound 2]
- inhibition at 3 µM (HIPK1): 10.3%
- remaining activity at 3 µM (HIPK1; [1]): 87.6%
- remaining activity at 3 µM (HIPK1; [2]): 91.7%
- inhibition at 3 µM (PIM3): -1.83%
- remaining activity at 3 µM (PIM3; [1]): 104%
- remaining activity at 3 µM (PIM3; [2]): 100%
- inhibition at 3 µM (PKCg): 16%
- remaining activity at 3 µM (PKCg; [1]): 83.9%
- remaining activity at 3 µM (PKCg; [2]): 84.2%
- inhibition at 3 µM (FRK/PTK5): 0.75%
- remaining activity at 3 µM (FRK/PTK5; [1]): 101%
- remaining activity at 3 µM (FRK/PTK5; [2]): 98%
- inhibition at 3 µM (ULK1): -0.59%
- remaining activity at 3 µM (ULK1; [1]): 100%
- remaining activity at 3 µM (ULK1; [2]): 101%
- inhibition at 3 µM (STK32C/YANK3): -6.01%
- remaining activity at 3 µM (STK32C/YANK3; [1]): 105%
- remaining activity at 3 µM (STK32C/YANK3; [2]): 107%
- inhibition at 3 µM (MKK6): 3.11%
- remaining activity at 3 µM (MKK6; [1]): 96.4%
- remaining activity at 3 µM (MKK6; [2]): 97.4%
